From the supplement of paper PMC10307832

Columns and labels:
Assay in all cases: relative viability (nuclei count vs DMSO), 5 days (fraction); higher = more cells survive
[1] = compound: COC1=CC=C(C=C1)CN2C=CC3=C2C=C(C=C3)C(=O)NO + CC(C)C[C@H](NC(=O)[C@H](Cc1ccccc1)NC(=O)c1cnccn1)B(O)O [Bortezomib] (partner 0.002 µM)
In short: (§1)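 Lung cancer cell lines, seeded in 1536-well plates, were treated the following day by pin tool with a single drug or with five library-drug doses (not always all listed) in √10 steps on top of a fixed anchor-drug dose. Cells were fixed and nuclei stained in one step after 5 days, and nuclei were counted. Relative viability is the nuclei count for treated wells divided by that for vehicle wells, reported as medians of duplicate plates.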

Veliparib + Phenformin = compound: C[C@]1(c2nc3c(C(N)=O)cccc3[nH]2)CCCN1 [Veliparib] + N=C(N)NC(=N)NCCc1ccccc1 [Phenformin] (partner 250 µM)
In short: as §1

Veliparib + AZD7762 = compound: C[C@]1(c2nc3c(C(N)=O)cccc3[nH]2)CCCN1 [Veliparib] + NC(=O)Nc1cc(-c2cccc(F)c2)sc1C(=O)N[C@H]1CCCNC1 [AZD7762] (partner 0.2 µM)
In short: as §1

[2] = compound: COC1=CC=C(C=C1)CN2C=CC3=C2C=C(C=C3)C(=O)NO + O=C(CCCCCCC(=O)Nc1ccccc1)NO [Vorinostat] (partner 1 µM)
In short: as §1

Cell Line	relative viability ([1]; first compound 0.08 µM)	relative viability ([1]; first compound 0.253 µM)	relative viability ([1]; first compound 0.8 µM)	relative viability ([1]; first compound 2.53 µM)	relative viability ([1]; first compound 8 µM)	relative viability (Veliparib + Phenformin; first compound 0.02 µM)	relative viability (Veliparib + Phenformin; first compound 0.06325 µM)	relative viability (Veliparib + Phenformin; first compound 0.2 µM)	relative viability (Veliparib + Phenformin; first compound 0.6325 µM)	relative viability (Veliparib + Phenformin; first compound 2 µM)	relative viability (Veliparib + AZD7762; first compound 0.02 µM)	relative viability (Veliparib + AZD7762; first compound 0.06325 µM)	relative viability (Veliparib + AZD7762; first compound 0.2 µM)	relative viability (Veliparib + AZD7762; first compound 0.6325 µM)	relative viability (Veliparib + AZD7762; first compound 2 µM)	relative viability ([2]; first compound 0.08 µM)	relative viability ([2]; first compound 0.253 µM)	relative viability ([2]; first compound 0.8 µM)	relative viability ([2]; first compound 2.53 µM)	relative viability ([2]; first compound 8 µM)
NCI-H647	0.789	0.929	0.848	0.846	1.11	0.438	0.405	0.563	0.505	0.597	0.53	0.415	0.429	0.552	0.394	0.457	0.738	0.802	0.702	0.515
ChaGo-K-1		0.752	0.962	0.942	0.868	0.326	0.517	0.465	0.471	0.514	0.73	0.854	0.83	0.83	0.824		0.837	0.772	0.706	0.558
NCI-H460	1.02	0.984	1.04	1.14	1.01	0.361	0.491	0.484	0.489	0.52	0.635	0.469	0.602	0.583	0.516	0.508	0.736	0.758	0.783	0.57
LU99A		1.13	1.14	1.06	0.938	0.928	0.838	0.612	0.75	0.976	0.403	0.385	0.322	0.283	0.317		0.504	0.581	0.418	0.352
PC-3 [JPC-3]	0.808	0.814	0.833	0.817	0.854	0.471	0.478	0.498	0.469	0.495	0.82		0.875	0.898	0.773	0.786		0.668	0.756	0.587
A-427		1.01	1.04	0.994	0.931		0.29	0.328	0.391	0.278	0.768	0.719	0.755	0.724	0.782	0.694		0.826	0.847	0.794
HCC-366		1.12	1.03	1.02	0.934	0.582	0.578	0.576	0.522	0.636	0.233	0.253	0.174	0.164	0.231	0.107	0.303	0.385	0.407	0.223
LCLC-97TM1		0.333	0.791	0.734	0.527	0.428	0.435	0.439	0.428	0.499	0.164	0.264	0.191	0.274	0.31		0.659	0.772	0.557	0.438
NCI-H2085	1.05	1.24	1.14	1.1	1.08		0.734	0.795	0.652	0.699	0.813	0.984	1.05	1.03	0.911	0.835	0.828	0.828	0.828	0.807
NCI-H1666	0.621	1.02	0.782	0.84	0.774	0.546	0.507	0.544	0.487	0.534	0.872	0.823	0.799	0.918	0.881	0.945	1.09	1.01	1.09	1.04
HCC-78	0.474	0.49	0.437	0.543	0.51	0.688	0.711	0.71	0.758	0.544	0.599	0.434	0.664	0.643	0.591	0.403	0.484	0.431	0.523	0.411
201T	1.09	1.1	1.1	1.14	1.06	0.411	0.356	0.463	0.457	0.462	0.656	0.778	0.645	0.639	0.689	0.813	0.952	0.967	0.986	0.868
NCI-H596	1.04		0.943	1.07	1.02	0.633	0.744	0.809	0.725	0.747	1.34	1.22	1.17	1.13	0.952	0.587	0.536	0.589	0.708	0.778
LXF-289	0.699	1	0.956	0.964	0.931	0.521	0.52	0.533	0.499	0.539	1.06	1.06	1.12	1.09	1.14		0.815	0.813	0.797	0.668
ABC-1		0.274	0.296	0.325	0.318		0.227	0.265	0.233	0.288		0.778	0.771	0.752	0.716		0.517	1.13	0.973	1.02
NCI-H2087	0.863	0.775	0.898	0.754	0.606	0.334	0.467	0.428	0.435	0.486	1.29	1.23	1.5	1.3	1.19	0.276	0.649	1.26	0.809	0.663
NCI-H441	0.331	0.406	0.543	0.497	0.413	0.915	0.986	0.855	0.72	0.876	1.12	1.09	1.14	1.01	1.04	0.74	0.888	0.902	0.844	0.637
